From patent US20220125348A1, “DETECTION OF INTERFERENT IN ANALYTE SENSING” (MEDTRONIC MINIMED, INC., priority 2020, published 2022)

Assay: in vivo study of the concentration of acetaminophen in plasma and in interstitial fluid over time (FIG. 8)
Excerpt: FIG. 8 illustrates an in vivo study of the concentration of acetaminophen in plasma and in interstitial fluid over time;
FIG. 8 further illustrates acetaminophen measured in concentration in vivo in plasma, at line 82, and in interstitial fluid, at line 84.

CC(=O)Nc1ccc(O)cc1 [acetaminophen]
measured acetaminophen concentration in interstitial fluid compared with plasma: less than that of plasma | time acetaminophen is present in interstitial fluid (interstitial fluid): over six | time acetaminophen is present in plasma (plasma): over six
